Test results: patent publication US20260344668A1, “PHENYLPYRAZOLE COMPOUND, AND PLANT DISEASE CONTROL METHOD” (priority 2022, published 2026)

What was measured:
[1] = tested on: Phakopsora pachyrhizi; experiment: Test Example 16 Control Test Against Soybean Rust Fungus (spore germination, petri dish); type: cell-based; conditions: treatment concentration 10 ppm, 23° C., 1 day
Method: (§1) The term of “non-treated well” in Test Example 4, Test Example 5, and Test Example 6 represents a well wherein a test was carried out under the same conditions as those described in each Test Example except for dispensing DMSO instead of a diluted solution with DMSO comprising the Present compound. Also, the term of “non-treated” in Test Examples 15 to 17 represents a test which was carried out under the same conditions as those described in each Test Example except for dispensing DMSO instead of a diluted solution with DMSO comprising the Present compound. Also, the term of “non-treated leaf disk” in Test Example 7 represents a leaf disk wherein a test was carried out under the same conditions as those described in the Test Example except for dispensing DMSO instead of a diluted solution with DMSO comprising the Present compound. Also, the term of “non-treated” in Test Example 10 and Test Example 11 means that a diluted solution with water of a formulation comprising the Present compound was not sprayed.
An agar medium (agar concentration: 1.0%) (3 mL) was placed in a plastic petri dish having a diameter of 3.5 cm, and solidified. Each Present compound was diluted with DMSO in such a way that the resulting diluted solution containing 10000 ppm of the compound, and said solution (1 μL) and an aqueous suspension (1.0×10^4/mL) (999 μL) of spores of Phakopsora pachyrhizi to which spores of Phakopsora pachyrhizi were suspended were mixed, and then the resulting mixture was dispensed into the plastic petri dish. This plastic petri dish was cultured at 23° C. for 1 day, and then germinated spores of Phakopsora pachyrhizi were counted. As a result, when the treatment concentration was 10 ppm, and any one of the Present compound 9, 10, 28, 29, or 32 was used as the test compound to carry out the test, the number of germinated spores in each plastic petri dish using the above each Present compound as the test compound was 50% or less relative to the number of germinated spores in the non-treated plastic petri dish.

[2] = tested on: Cochliobolus miyabeanus; experiment: Test Example 6 Control Test Against Rice Brown Spot Fungus (96 well titer plate growth); type: cell-based; conditions: 1 μL of 150 ppm DMSO solution + 150 μL YB liquid medium, 23° C., 3 days, absorbance at 550 nm
Method: as §1
Each of the Present compound 17, 33, 36, 37, 39, 40, 41, 42, 43, 44, 48, 49, 50, 51, 52, 53, 62, 68, 69, 70, 71, 76, 77, 79, 80, 81, 82, 83, 84, or 97 was diluted with DMSO to obtain a diluted solution containing 150 ppm of each compound, and 1 μL of the diluted solution was dispensed into a titer plate (96 well), and thereto was then dispensed 150 μL of a YB liquid medium to which spores of Cochliobolus miyabeanus were inoculated in advance. This plate was cultured at 23° C. for 3 days, thereby allowing Cochliobolus miyabeanus to undergo proliferation, and the absorbance at 550 nm of each well of the titer plate was then measured to determine a degree of growth of Cochliobolus miyabeanus. As a result, the degree of growth in the well treated with each of the above Present compounds was 50% or less relative to the degree of growth in the non-treated well.

[3] = tested on: soybean rust fungus (Phakopsora pachyrhizi) having an amino acid substitution of F129L in a mitochondrial cytochrome b protein; experiment: Test Example 7 Control Test Against Soybean Rust (leaf disk); type: in vivo; conditions: 200 ppm, 10 μL per soybean leaf disk (cultivar: Kurosengoku), inoculated after 1 day
Procedure, shortened: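 Soybean (Kurosengoku) leaf disks of 1 cm on 1.2% agar were sprayed with compound in a DMSO/xylene/Sorpol emulsion diluted in water to a prescribed concentration. One day later they were spray-inoculated with F129L cytochrome b mutant P. pachyrhizi spores (1.0×10^5/mL) and kept at 23 °C, 60% humidity, 6 h light, for about 13 days. Lesion area was compared with DMSO-treated disks.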

[4] = tested on: Phakopsora pachyrhizi; experiment: Test Example 11 Control Test Against Soybean Rust (pot test, spraying before inoculation); type: in vivo; conditions: 200 ppm foliage spray, soybeans (Kurosengoku), inoculated after 2 to 5 days
Procedure, shortened: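 Soybeans (cv. Kurosengoku), grown 10–14 days in pots, foliar-sprayed with formulated compound at 200 ppm, inoculated 2–5 days later with Phakopsora pachyrhizi spores. Kept humid 1–2 days at 23 °C day/20 °C night, then greenhouse 12 days; lesion area scored against unsprayed plants.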

[5] = tested on: Phakopsora pachyrhizi; experiment: Test Example 15 Control Test Against Soybean Rust Fungus (spore germination, 96 well titer plate); type: cell-based; conditions: treatment concentration 1 ppm, 23° C., several hours
Procedure, shortened: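 Compound in DMSO was added to an aqueous Phakopsora pachyrhizi spore suspension (1.0×10^4/mL) and incubated several hours at 23° C. Germinated spores were counted relative to DMSO-only wells.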

[6] = tested on: Cladosporium carpophilum; experiment: Test Example 5 Control Test Against Peach Scab Fungus (96 well titer plate growth); type: cell-based; conditions: 1 μL of 150 ppm DMSO solution + 150 μL PDB medium, 18° C., 5 days, absorbance at 550 nm
Method: as §1
Each of the Present compound 79, 80, 81, 89, 92, 93, 96, or 99 was diluted with DMSO to obtain a diluted solution containing 150 ppm of each compound, and 1 μL of the diluted solution was dispensed into a titer plate (96 well), and thereto was then dispensed 150 μL of a potato dextrose broth medium (PDB medium) to which spores of Cladosporium carpophilum were inoculated in advance. This plate was cultured at 18° C. for 5 days, thereby allowing Cladosporium carpophilum to undergo proliferation, and the absorbance at 550 nm of each well of the titer plate was then measured to determine a degree of growth of Cladosporium carpophilum. As a result, the degree of growth in the well treated with each of the above Present compound was 50% or less relative to the degree of growth in the non-treated well.

SMILES	number of germinated spores relative to the non-treated plastic petri dish [1]	degree of growth relative to the degree of growth in the non-treated well [2]	lesion area relative to the lesion area of non-treated leaf disk [3]	lesion area relative to the lesion area in the non-treated soybeans [4]	number of germinated spores relative to the non-treated well [5]	degree of growth relative to the degree of growth in the non-treated well [6]
Cc1ccc(S(=O)(=O)n2ccc(-c3cccc(F)c3)n2)cc1 [compound 28]	≤ 50%					
O=S(=O)(c1cccs1)n1ccc(-c2ccc3nsnc3c2)n1 [compound 68]		≤ 50%	≤ 30%	≤ 30%	≤ 50%	
Cc1ccc(-c2ccn(S(=O)(=O)c3ccco3)n2)cc1F [compound 69]		≤ 50%	≤ 30%	≤ 30%	≤ 50%	
Cc1ccc(-c2ccn(S(=O)(=O)c3ccoc3)n2)cc1F [compound 70]		≤ 50%	≤ 30%	≤ 30%	≤ 50%	
Cc1ccc(-c2ccn(S(=O)(=O)c3cccs3)n2)cc1F [compound 71]		≤ 50%	≤ 30%	≤ 30%	≤ 50%	
Cc1ccc(-c2ccn(S(=O)(=O)c3ccco3)n2)cc1 [compound 76]		≤ 50%	≤ 30%	≤ 30%	≤ 50%	
Cc1ccc(-c2ccn(S(=O)(=O)c3ccoc3)n2)cc1 [compound 77]		≤ 50%	≤ 30%	≤ 30%	≤ 50%	
O=S(=O)(c1ccco1)n1ccc(-c2ccc(Cl)cc2)n1 [compound 79]		≤ 50%	≤ 30%	≤ 30%	≤ 50%	≤ 50%
O=S(=O)(c1ccoc1)n1ccc(-c2ccc(Cl)cc2)n1 [compound 80]		≤ 50%	≤ 30%	≤ 30%	≤ 50%	≤ 50%
O=S(=O)(c1cccs1)n1ccc(-c2ccc(Cl)cc2)n1 [compound 81]		≤ 50%	≤ 30%	≤ 30%	≤ 50%	≤ 50%
O=S(=O)(c1ccco1)n1ccc(-c2ccc(I)cc2)n1 [compound 82]		≤ 50%	≤ 30%	≤ 30%	≤ 50%	
O=S(=O)(c1ccoc1)n1ccc(-c2ccc(I)cc2)n1 [compound 83]		≤ 50%	≤ 30%	≤ 30%	≤ 50%	
O=S(=O)(c1cccs1)n1ccc(-c2ccc(I)cc2)n1 [compound 84]		≤ 50%	≤ 30%	≤ 30%	≤ 50%	
O=S(=O)(c1ccoc1)n1ccc(-c2ccc(F)cc2)n1 [compound 89]			≤ 30%	≤ 30%	≤ 50%	≤ 50%
O=S(=O)(c1ccoc1)n1ccc(-c2ccc(F)c(F)c2)n1 [compound 92]			≤ 30%	≤ 30%	≤ 50%	≤ 50%
O=S(=O)(c1cccs1)n1ccc(-c2ccc(F)c(F)c2)n1 [compound 93]			≤ 30%	≤ 30%	≤ 50%	≤ 50%
O=S(=O)(c1cccs1)n1ccc(-c2cccc(F)c2)n1 [compound 96]			≤ 30%	≤ 30%	≤ 50%	≤ 50%
Cc1ccc(-c2ccn(S(=O)(=O)c3cccnc3)n2)cc1F [compound 97]		≤ 50%	≤ 30%	≤ 30%	≤ 50%	
Cc1ccc(-c2ccn(S(=O)(=O)c3cccnc3)n2)cc1 [compound 99]			≤ 30%	≤ 30%	≤ 50%	≤ 50%
